Source: patent US4666886A, “Novel peptide derivatives” (Ciba-Geigy Corporation, priority 1983, dated 1987)
Square brackets hold non-standard residues; d marks the D form. Peptide text beside a SMILES is read from it. * marks the point of attachment. X2 = CCCCCCCCCCCC(=O)OC[C@H](C*)OC(=O)CCCCCCCCCCC; Palmitoyl = CCCCCCCCCCCCCCCC(=O)*

Tested on: Alveolar rat macrophages
Assay: Activation of alveolar rat macrophages: specific cytotoxicity against 125I-marked tumour cells
Assay type: cell-based
Protocol: Alveolar rat macrophages are obtained by lung lavage, plated out and incubated in vitro from 24 hours either with liposomes that are charged with the active ingredient, or with the active ingredient in physiological salt solution (phosphate buffered saline, PBS), ^125 I-marked tumour cells are added and incubation is continued for a further 72 hours. Subsequently the dead tumour cells are washed away and the number of tumour cells still living is determined on the basis of their radioactivity. The macrophage activation is assessed on the basis of the cytotoxicity, that is to say according to the proportion of tumour cells dead at the end of the test. The specific cytotoxicity [%] is calculated as follows: [formula] Further details of the above-mentioned test method are described in I. J. Fidler et al., J. Biol. Response Modifiers 1, 43-55 (1982).

SMILES: CCCCCCCCCCCCCCCC(=O)N[C@@H](CSC[C@@H](COC(=O)CCCCCCCCCCC)OC(=O)CCCCCCCCCCC)C(=O)N[C@H](C)C(=O)N[C@@H](C)C(=O)N[C@H](CCC(=O)O)C(N)=O [R, palmitoyl-Cys(2[R], 3-dilauroyloxy-propyl)-D-Ala-Ala-D-Glu-NH2] (Palmitoyl-C(X2)[dA]A[dE]-NH2)
- Specific cytotoxicity [%] (active ingredient in 100 μg of liposomes per 0.2 ml, 0.02 μg/culture): 20%
- Specific cytotoxicity [%] (active ingredient in 100 μg of liposomes per 0.2 ml, 0.2 μg/culture): 18%
- Specific cytotoxicity [%] (active ingredient in 100 μg of liposomes per 0.2 ml, 2 μg/culture): 86%
- Specific cytotoxicity [%] (active ingredient in 0.2 ml of PBS, 0.02 μg/culture): 0%
- Specific cytotoxicity [%] (active ingredient in 0.2 ml of PBS, 0.2 μg/culture): 84%
- Specific cytotoxicity [%] (active ingredient in 0.2 ml of PBS, 2 μg/culture): 51%
